According to US6987122B2, “2-(1H-indol-3-yl)-2-oxo-acetic acid amides with antitumor activity” (Novuspharma S.p.A., priority 2000, dated 2006):

`O=C(Nc1nccs1)C(=O)c1cn(Cc2ccc(F)cc2)c2ccccc12` gave a melting point of 233 to 237 °C.
In the case of `O=C(Nc1nncs1)C(=O)c1cn(Cc2ccc(F)cc2)c2ccccc12`, the melting point was 218 to 220 °C.
